Results published in paper PMC6270094, “Dibenzo[1,2,5]thiadiazepines Are Non-Competitive GABAA Receptor Antagonists” (Molecules, 2013).
Read-outs that look alike come from different tables or passages of the source.

Columns and labels:
[1] = Solubility under the electrophysiological experimental conditions; format: physicochemical; settings: for solubility: under experimental conditions, read-out: Highest soluble concentration (insoluble above)
Method: To investigate this possibility, we added 100 μM 2b to the pipette solution (internal) and monitored IGABA, and we applied 2b to the outside of the cells and monitored the inhibitory effects (Figure 6). Experiments were performed using 2b, even though cLog P was less than 2, because 2c and 2d were insoluble under the conditions employed. […] Consistent with these findings, in recordings with 2b in the pipette, the amplitude of IGABA was the same 5 min (−1536 ± 379 pA) and 10 min (−1604 ± 409 pA; n = 4) after obtaining the whole-cell configuration. […] Thus, such an inhibition was as large as that observed without 2b inside the cells (Figure 6B).

[2] = tested on: native GABAA receptors of guinea pig myenteric neurons; assay: Whole-cell recordings of membrane currents induced by GABA (IGABA) in cultured myenteric neurons; format: cell-based; settings: for Percentage of inhibition of GABA-induced inward currents: 100 μM compound, 3 min treatment, mean ± SEM (n); for Voltage dependence of inhibitory effect (−60 mV vs +40 mV) / Time constant (t) of IGABA inhibition / Time to reach maximum inhibition: 100 μM DBTD; for Time constant (t) of IGABA inhibition: 3–180 s, Michaelis–Menten fit; for Time to reach maximum inhibition: after initial exposure; for Amplitude of IGABA with compound inside the pipette: 2b 100 μM internal; for Reversibility of current inhibition on washing: within five minutes of washing; for Effect of maximal antagonist concentration on IGABA: maximal concentrations used
Excerpt: Guinea pigs (100–200 g; either male or female) were sacrificed by cervical dislocation and carotid exsanguination. These methods have been approved by the Animal Care Committee of the IPICYT and are in agreement with the published Guiding Principles in the Care and Use of Animals, approved by the American Physiological Society. A segment of ~10 cm of the jejunum was removed and placed in a modified Krebs solution (in mM: NaCl, 126; NaH2PO4, 1.2; MgCl2, 1.2; CaCl2, 2.5; KCl, 5; NaH2CO3, 25; glucose, 11. The sample was gassed under 95% O2 and 5% CO2) and opened longitudinally. A dissecting microscope was used to dissect the mucosa and submucosa layers prior to removing most of the circular muscle layer, leaving the myenteric plexus embedded in a longitudinal layer.
The cell isolation procedure has been described elsewhere. The myenteric preparation was dissociated by sequential treatment with two enzymatic solutions: the first solution contained papain (0.01 mL·mL^−1 activated with 0.4 mg·mL^−1L-cysteine), and the second solution contained collagenase (1 mg·mL^−1) and dispase (4 mg·mL^−1). The enzymes were removed by washing the neurons with L15 medium, and the neurons were placed on round coverslips coated with sterile rat-tail collagen. The culture medium was varied from minimal medium to essential medium 97.5% containing 2.5% guinea pig serum, 2 mM L-glutamine, 10 U·mL^−1 penicillin, 10 μg·mL^−1 streptomycin, and 15 mM glucose.
To reduce the effects of the membrane currents other than those mediated by the activation of LGIC, experiments were conducted in the presence of Cs^+ (a potassium channel blocker). […] The holding potential was −60 mV (unless otherwise stated), and the short-term (4–50 h) primary cultures of the myenteric neurons were used to prevent space-clamp problems due to neurite growth. Glass pipettes with a resistance of 2–5 MΩ were prepared as described previously. This low resistance and slight suction inside the pipette during the recordings maintained a low series resistance (around 6 MΩ).
All experiments were conducted using standard solutions with the following compositions (in mM); inside the pipette: CsCl, 160; EGTA, 10; HEPES, 5; NaCl, 10; ATPMg, 3 and GTP, 0.1; external solution: NaCl, 160; CaCl2, 2; glucose, 11; HEPES, 5 and CsCl, 3. The pH of all solutions was adjusted to 7.3–7.4 using either CsOH (pipette solution) or NaOH (external solution). The seal resistance in the whole-cell mode ranged from 1 to 10 GΩ. The whole-cell current data were recorded on a PC using the AxoScope software (Axon Instruments, Inc.) and were analyzed using the AXOGRAPH software (Molecular Devices, CA, USA). The recording chamber was superfused with an external solution at ~2 mL·min^−1. The solution around the neuron was quickly exchanged during recordings using an eight-tube device. Each tube was connected to a syringe (10 mL) containing either the control or the experimental solution. A control tube was positioned ~300 μm in front of the recorded neuron, and substances were applied externally by abruptly interchanging the tube for another tube containing the control solution plus the drug(s). […] Experimental substances were removed by returning to the control solution. External solutions were applied by gravity, and the height of the syringes was continuously adjusted to minimize changes in the flow rate. The experiments were performed at room temperature (24 ± 1 °C).
L15 medium, minimum essential medium, Hanks solution, penicillin-streptomycin, and L-glutamine were purchased from GIBCO (Life Technologies Corp., Carlsbad, CA, USA). Collagenase and papain were purchased from Worthington (Worthington Biochemical Corp., Lakewood, NJ, USA), and dispase was purchased from Roche (Indianapolis, IN, USA). […] Pentobarbital-Na was purchased from Lab Ttokkyo, S.A. (México, D.F., Mexico).

[3] = DBTD 3–1,000 μM, 3 min before 300 μM GABA, fit assuming 100% inhibition, read-out: IC50 for inhibition of IGABA by DBTDs

**Q.** With O=S1(=O)Nc2ccccc2Nc2ccccc21 [2a, 6,11-Dihydrodibenzo[c,f][1,2,5]thiadiazepine-5,5-dioxide] as the molecule, how does the “Solubility remark (potency could not be calculated)” value [1] read?
**A.** solubility problems

**Q.** And the “Percentage of inhibition of GABA-induced inward currents” value ([2]; 300 μM GABA)?
**A.** 28.4 ± 1.4 (5) %

**Q.** With O=S1(=O)Nc2ccc(F)cc2Nc2ccccc21 [2b, 9-Fluoro-6,11-dihydrodibenzo[c,f][1,2,5]thiadiazepine-5,5-dioxide] as the molecule, how does the “Decrease of the maximum of the GABA concentration–response curve” value ([2]; 100 μM 2b) read?
**A.** ~ 50%

**Q.** What about the Type of antagonism ([2]; 100 μM 2b, GABA concentration-response curves) of the same molecule?
**A.** non-competitive

**Q.** And the “Voltage dependence of inhibitory effect (−60 mV vs +40 mV)” value ([2]; 300 μM GABA)?
**A.** identical

**Q.** And the “Time constant (t) of IGABA inhibition” value ([2]; 300 μM GABA)?
**A.** 4.9 s

**Q.** And the “Time to reach maximum inhibition” value [2]?
**A.** 3 min

**Q.** What about the “Percentage of inhibition of GABA-induced inward currents” value ([2]; 300 μM GABA) of the same molecule?
**A.** 50.8 ± 2.1 (12) %

**Q.** What about the “Amplitude of IGABA with compound inside the pipette” value ([2]; 300 μM GABA, 2 to 3 min after whole cell configuration, n = 4) of the same molecule?
**A.** −1408 ± 344 pA

**Q.** What about the “Amplitude of IGABA with compound inside the pipette” value ([2]; 5 min after whole-cell configuration) of the same molecule?
**A.** −1536 ± 379 pA

**Q.** And the “Amplitude of IGABA with compound inside the pipette” value ([2]; 10 min after whole-cell configuration, n = 4)?
**A.** −1604 ± 409 pA

**Q.** And the IC50 [2, 3]?
**A.** 104 ± 9.2 µM

**Q.** What about the “Maximum effect on GABA-activated currents” value ([2]; at 1 mM) of the same molecule?
**A.** complete inhibition

**Q.** What about the “Reversibility of current inhibition on washing” value [2] of the same molecule?
**A.** fully reversed

**Q.** Which solubility [1] does the source give for O=S1(=O)Nc2ccc(Cl)cc2Nc2ccccc21 [2c, 9-Chloro-6,11-dihydrodibenzo[c,f][1,2,5]thiadiazepine-5,5-dioxide] here?
**A.** ≤ 300 µM

**Q.** What about the “Voltage dependence of inhibitory effect (−60 mV vs +40 mV)” value ([2]; 300 μM GABA) of the same molecule?
**A.** identical

**Q.** What about the “Time constant (t) of IGABA inhibition” value ([2]; 300 μM GABA) of the same molecule?
**A.** 2.6 s

**Q.** And the “Time to reach maximum inhibition” value [2]?
**A.** 3 min

**Q.** What about the “Percentage of inhibition of GABA-induced inward currents” value ([2]; 300 μM GABA) of the same molecule?
**A.** 74.2 ± 3.6 (6) %

**Q.** And the IC50 [2, 3]?
**A.** 50.4 ± 6.4 µM

**Q.** What about the “Interaction with picrotoxin effect” value ([2]; simultaneous application, n = 4) of the same molecule?
**A.** neither picrotoxin effect was modified by 2c nor the inhibitory effect of 2c was affected by picrotoxin

**Q.** What about the “Reversibility of current inhibition on washing” value [2] of the same molecule?
**A.** fully reversed

**Q.** Which solubility [1] does the source give for O=S1(=O)Nc2ccc(Br)cc2Nc2ccccc21 [2d, 9-Bromo-6,11-dihydrodibenzo[c,f][1,2,5]thiadiazepine-5,5-dioxide] here?
**A.** ≤ 300 µM

**Q.** What about the “Voltage dependence of inhibitory effect (−60 mV vs +40 mV)” value ([2]; 300 μM GABA) of the same molecule?
**A.** identical

**Q.** And the “Time constant (t) of IGABA inhibition” value ([2]; 300 μM GABA)?
**A.** 29.3 s

**Q.** And the “Percentage of inhibition of GABA-induced inward currents” value ([2]; 300 μM GABA)?
**A.** 74.2 ± 2.4 (10) %

**Q.** And the “Calculated time required to reach maximum inhibition” value ([2]; 100 μM, calculated from fit)?
**A.** 17 min

**Q.** And the Calculated maximum inhibition ([2]; 100 μM, from Michaelis–Menten fit)?
**A.** 87.0 ± 3.0%

**Q.** What about the IC50 [2, 3] of the same molecule?
**A.** 47.6 ± 30.3 µM

**Q.** What about the “Reversibility of current inhibition on washing” value [2] of the same molecule?
**A.** fully reversed

**Q.** For COc1ccc2c(c1)Nc1ccccc1S(=O)(=O)N2 [2e, 9-Methoxy-6,11-dihydrodibenzo[c,f][1,2,5]thiadiazepine-5,5-dioxide], which “Solubility remark (potency could not be calculated)” value [1] is on record?
**A.** solubility problems

**Q.** What about the “Percentage of inhibition of GABA-induced inward currents” value ([2]; 300 μM GABA) of the same molecule?
**A.** 43.7 ± 3.8 (3) %

**Q.** For CCOC(=O)c1ccc2c(c1)Nc1ccccc1S(=O)(=O)N2 [2f, Ethyl 6,11-dihydrodibenzo[c,f][1,2,5]thiadiazepine-9-carboxylate-5,5-dioxide], which “Solubility remark (potency could not be calculated)” value [1] is on record?
**A.** solubility problems

**Q.** And the “Percentage of inhibition of GABA-induced inward currents” value ([2]; 300 μM GABA)?
**A.** 47.1 ± 3.7 (7) %

**Q.** Which results are given for O=C(O)c1ccc2c(c1)Nc1ccccc1S(=O)(=O)N2 [2g, 6,11-Dihydrodibenzo[c,f][1,2,5]thiadiazepine-9-carboxylic acid 5,5-dioxide]?
**A.** Solubility remark (potency could not be calculated) [1]: solubility problems; Percentage of inhibition of GABA-induced inward currents ([2]; 300 μM GABA): 16.0 ± 2.4 (6) %; melting point: 350 °C

**Q.** For NCCCC(=O)O [GABA], which “Amplitude of IGABA among different neurons” value ([2]; response to 300 μM GABA, −60 mV) is on record?
**A.** 0.1–6 nA

**Q.** Which “Effect of maximal antagonist concentration on IGABA” value [2] does the source give for CN1CCc2cc3c(cc2[C@H]1[C@@H]1OC(=O)c2c1ccc1c2OCO1)OCO3 [bicuculline, reference compound] here?
**A.** virtually abolished IGABA

**Q.** And the IC50 ([2]; read-out: IC50 for inhibition of IGABA by GABAA inhibitors)?
**A.** 10 ± 2 µM

**Q.** For CCOC(=O)c1ncn2c1CN(C)C(=O)c1cc(F)ccc1-2 [flumazenil, reference compound], which “Effect of flumazenil alone on holding current or IGABA” value ([2]; 10 μM, 3 min, five neurons, data not shown) is on record?
**A.** did not induce changes in the holding current or IGABA

**Q.** With picrotoxin [reference compound] as the molecule, how does the IC50 ([2]; bicuculline 0.1–100 μM, picrotoxin 3–1,000 μM, data not shown, read-out: IC50 for inhibition of IGABA by GABAA inhibitors) read?
**A.** 6 ± 1 µM

**Q.** And the “Effect of maximal antagonist concentration on IGABA” value [2]?
**A.** virtually abolished IGABA
